In general, IC50 refers to the concentration needed to halve the response being measured. Read a low IC50 as inhibition by little substance.

For 5 compounds, IC50 results are on record in article PMC11500612, “Differential effects of inosine monophosphate dehydrogenase (IMPDH/GuaB) inhibition in Acinetobacter baumannii and Escherichia coli” (Journal of Bacteriology, 2024).

Where only a bound is given, the exact number is not on record here.

Common to all, as to format: biochemical
The target of assay [1] is T1, GuaB^Ec (Escherichia coli, UniProt P0ADG7).
T1 sequence (P0ADG7 1-488): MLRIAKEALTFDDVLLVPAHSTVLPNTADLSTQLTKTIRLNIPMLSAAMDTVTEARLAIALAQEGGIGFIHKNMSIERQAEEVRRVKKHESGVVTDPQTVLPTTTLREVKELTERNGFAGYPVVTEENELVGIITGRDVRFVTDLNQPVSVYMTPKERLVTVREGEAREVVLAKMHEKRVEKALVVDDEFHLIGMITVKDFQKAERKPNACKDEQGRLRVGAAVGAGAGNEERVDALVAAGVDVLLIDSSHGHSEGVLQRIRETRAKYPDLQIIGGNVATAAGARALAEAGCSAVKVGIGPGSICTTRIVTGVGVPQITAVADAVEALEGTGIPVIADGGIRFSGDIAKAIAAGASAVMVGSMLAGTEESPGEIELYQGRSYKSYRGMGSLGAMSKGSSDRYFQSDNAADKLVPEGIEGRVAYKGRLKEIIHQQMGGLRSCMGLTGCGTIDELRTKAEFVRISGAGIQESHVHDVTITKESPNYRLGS
Briefly: NADH production, absorbance at […] nm.

The target of assay [2] is GuaB^Sa (Staphylococcus aureus, UniProt Q2FJM6). Briefly: NADH production, NAD(P)H-Glo luminescence. The source says: NADH production, NAD(P)H-Glo luminescence on GuaB^Sa
Assay [3] concerns the target T2, GuaB^Ab (Acinetobacter baumannii, UniProt D0CF46).
T2 construct: recombinant A. baumannii GuaB
T2 sequence (D0CF46 1-488): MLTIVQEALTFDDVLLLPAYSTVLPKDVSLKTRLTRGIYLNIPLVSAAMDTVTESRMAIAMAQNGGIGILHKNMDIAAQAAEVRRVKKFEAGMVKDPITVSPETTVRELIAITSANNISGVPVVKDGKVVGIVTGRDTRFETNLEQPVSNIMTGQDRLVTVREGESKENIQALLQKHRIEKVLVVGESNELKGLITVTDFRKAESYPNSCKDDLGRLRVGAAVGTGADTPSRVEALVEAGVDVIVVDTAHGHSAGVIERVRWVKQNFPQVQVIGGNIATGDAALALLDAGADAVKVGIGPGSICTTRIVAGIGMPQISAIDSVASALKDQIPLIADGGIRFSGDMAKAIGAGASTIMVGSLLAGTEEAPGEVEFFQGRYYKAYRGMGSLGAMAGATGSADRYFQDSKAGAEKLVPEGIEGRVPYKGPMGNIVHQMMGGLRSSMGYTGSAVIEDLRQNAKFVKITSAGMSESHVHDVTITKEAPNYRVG
Briefly: NADH production, NAD(P)H-Glo luminescence. An excerpt:
NADH production, NAD(P)H-Glo luminescence on GuaB^Ab

Assay [4] has as its target T3, hIMPDH2 (Homo sapiens, UniProt P12268).
T3 construct: gene IMPDH2; not described in the main text
The assay can be described thus: enzyme inhibition, method not given. The source says:
enzyme inhibition, method not described in main text on hIMPDH2

GuaB^Sa, sequence (Q2FJM6 whole entry): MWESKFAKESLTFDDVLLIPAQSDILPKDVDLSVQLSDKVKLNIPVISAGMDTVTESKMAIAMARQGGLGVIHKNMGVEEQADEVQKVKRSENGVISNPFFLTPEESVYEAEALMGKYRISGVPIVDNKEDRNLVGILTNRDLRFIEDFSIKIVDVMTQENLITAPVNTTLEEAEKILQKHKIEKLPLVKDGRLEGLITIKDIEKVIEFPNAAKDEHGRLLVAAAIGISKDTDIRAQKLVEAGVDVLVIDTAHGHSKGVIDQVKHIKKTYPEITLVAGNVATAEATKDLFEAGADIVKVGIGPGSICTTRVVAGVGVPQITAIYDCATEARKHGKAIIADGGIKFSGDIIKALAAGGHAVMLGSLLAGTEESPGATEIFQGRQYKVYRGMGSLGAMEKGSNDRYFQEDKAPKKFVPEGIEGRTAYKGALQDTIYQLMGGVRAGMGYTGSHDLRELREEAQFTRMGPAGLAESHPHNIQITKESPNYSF
T3 sequence (P12268 2-514): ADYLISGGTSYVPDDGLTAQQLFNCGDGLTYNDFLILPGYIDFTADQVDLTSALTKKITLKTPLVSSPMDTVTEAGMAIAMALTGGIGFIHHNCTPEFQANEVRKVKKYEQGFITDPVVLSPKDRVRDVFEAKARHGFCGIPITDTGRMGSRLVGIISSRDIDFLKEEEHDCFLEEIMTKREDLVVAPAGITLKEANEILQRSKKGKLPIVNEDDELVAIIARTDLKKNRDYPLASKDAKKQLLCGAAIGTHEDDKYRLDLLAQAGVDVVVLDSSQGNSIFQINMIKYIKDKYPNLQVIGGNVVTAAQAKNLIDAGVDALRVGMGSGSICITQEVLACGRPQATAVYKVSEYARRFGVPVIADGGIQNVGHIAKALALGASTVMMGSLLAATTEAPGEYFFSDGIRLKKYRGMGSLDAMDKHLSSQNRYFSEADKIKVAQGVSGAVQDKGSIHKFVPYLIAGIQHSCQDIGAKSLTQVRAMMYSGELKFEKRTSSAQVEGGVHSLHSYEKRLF

Take `C[C@H](Nc1ccc2ncc(CO)cc2c1)C(=O)Nc1ccc(Cl)c(N2CCOCC2)c1` [G6]: the IC50 in assay [1] is 5.9 nM; in assay [2], 0.801 nM; in assay [3], 0.564 nM; in assay [4], over 50 µM.

Turning to `C[C@H](Nc1ccc2ncc(CO)cc2c1)C(=O)Nc1ccc(Cl)c(N(C)C)c1` [G2], the IC50 is 15.8 nM in assay [1], 3.5 nM in assay [2], 0.666 nM in assay [3] and over 50 µM in assay [4].

`C[C@H](Nc1ccc(-n2cncn2)cc1)C(=O)Nc1ccc2sc(-c3cc[n+]([O-])cc3)nc2c1` [G4]: the IC50 was 903 nM in assay [1], 0.62 nM in assay [2], 0.617 nM in assay [3] and over 50 µM in assay [4].

On to `C[C@H](Nc1ccc2ncc(CO)cc2c1)C(=O)Nc1ccc(Br)nc1` [G3], for which the IC50 in assay [1] was 91 nM; in assay [2] it was 2.45 nM; in assay [3] it was 0.975 nM; in assay [4], over 50 µM.

As to `C[C@H](Nc1ccc(-n2cccn2)cc1)C(=O)Nc1ccc2sc(-c3ccncc3)nc2c1` [G5], the IC50 in assay [1] was 569 nM; in assay [2], 0.511 nM; in assay [3], 0.394 nM; in assay [4] it was over 50 µM.
